Assay results as given in patent US8309578B2, “Bicyclic pyrazole and isoxazole derivatives as antitumor and antineurodegenerative agents” (Nerviano Medical Sciences S.r.l., priority 2008, dated 2012).

Tested on: Her2 protein levels in BT474 breast cancer cells
Assay: Her2 degradation in BT474 breast cancer cells (immunocytochemistry, ArrayScan vTi), marker for Hsp90 inhibition
Format: cell-based
Details: Homo sapiens, BT-474, 8 h treatment, concentration at which cellular Her2 signal is diminished by 50% vs untreated controls
Experimental: The potency of the compounds of formula (I) were evaluated by measuring the Her2 degradation as a marker for Hsp90 inhibition.
Hsp90 is a key component of a chaperone machinery that catalyzes the folding and quality control of several proteins. Its inhibition impairs the capacity to fold or stabilize its client proteins, leading to the proteosomal dependent degradation of these unfolded proteins. At the moment there is an increasing number (>100) of reported Hsp90 clients, but one of the most frequently way to detect Hsp90 chaperone inhibition is the detection of Her2 protein levels after short time treatment (usually 8-24 h), in order to be sure about the specificity of this effect.
Cellular activity of Hsp90 inhibitors was assessed by measuring the induced loss of Her2 protein levels in BT474 breast cancer cells (ATCC #HTB-20). Cellular Her2 levels were measured by immunocytochemistry, and quantified using an ArrayScan vTi instrument (Cellomics Thermo Scientific).
Studies were performed as follows: 5000 cells/well are seeded in 96 well plates (Perkin Elmer) in DMEM/5% FCS and incubated for 48 h at 37° C., under 5% CO2.
Medium is then replaced with fresh medium containing test compounds at the required concentration. Concentration curves are prepared in DMEM/10% FCS from compound stocks in DMSO, and final DMSO concentration is 0.1% (v/v). Duplicate wells for each concentration point are prepared, with a typical highest compound concentration of 30 μM. After addition of compound, plates are returned to the incubator for 8 h, then fixed by replacing medium with PBS containing 3.7% paraformaldehyde solution. Plates are incubated for 20 minutes at room temperature, then wells are washed in PBS and cells permiabilised by incubating with PBS containing 0, 3% Triton X-100 for 15 minutes at room temperature. Non-specific binding sites are blocked by incubating wells for 1 h in PBS containing 3% (w/v) BSA. Wells are then incubated for 1 h at room temperature in PBS containing anti Her2 mouse monoclonal (Anti-c-ErbB2/c-Neu, Mouse mAb 3B5, Calbiochem Cat No OP15) diluted 1:100 in 1% (w/v) BSA. After 3 washes in PBS, wells are incubated in PBS (w/v) 1% BSA containing a 2 μg/ml of Cy2-conjugated Goat anti mouse secondary antibody (Amersham Pharmacia Biothech cat. No PA 42002) (Absorption maximum 489 nm fluorescence maximum 506 nm) and 1 μg/ml of DAPI (Absorption maximum 359 nm fluorescence maximum 461 nm) (4′,6-Diamidino-2-phenylindole, dilactate) (Sigma cat. No D 9564) a high sensitivity dye to detect nucleid acid for nuclear staining. After washing a further 3 times in PBS, cellular Her2 immunoreactivity is assessed using the ArrayScan vTi instrument, with a Zeiss 10×0.5 N.A. objective, and applying the Cytotoxity.V3 algorithm (Cellomics/Thermo Fisher) with a XF100 filter. At least 10 fields, corresponding to at least 900 cells, are read for each well. IC50 values represent the compound concentration at which cellular Her2 signal is diminished by 50% compared with untreated controls.
The following formula is used: IC50=Bottom+(Top−Bottom)/(1+10^((Log EC50−X)));
X is the logarithm of concentration. IC50 is the response; IC50 starts at Bottom and goes to Top with a sigmoid shape. The compounds of formula (I) tested as described above, result to induce the degradation of Her2 protein.

IC50 [µM] | SMILES
4 | COc1ccc(CN2CCc3[nH]nc(-c4cc(Cl)c(O)cc4O)c3C2)cc1OC [compound 40, 4-chloro-6-[5-(3,4-dimethoxybenzyl)-4,5,6,7-tetrahydro-1H-pyrazolo[4,3-c]pyridin-3-yl]benzene-1,3-diol]
3.4 | Oc1cc(O)c(-c2n[nH]c3c2CN(Cc2ccc(-n4ccnn4)cc2)CC3)cc1Cl [compound 49, 4-chloro-6-{5-[4-(1H-1,2,3-triazol-1-yl)benzyl]-4,5,6,7-tetrahydro-1H-pyrazolo[4,3-c]pyridin-3-yl}benzene-1,3-diol]
8.7 | Oc1cc(O)c(-c2onc3c2CN(Cc2ccc(-n4ccnc4)cc2)CC3)cc1Cl [compound 67, 4-chloro-6-{5-[4-(1H-imidazol-1-yl)benzyl]-4,5,6,7-tetrahydroisoxazolo[4,3-c]pyridin-3-yl}benzene-1,3-diol]

The remaining lines, values behind:

SMILES | IC50 [µM]
O=C(C1CCC2(CC1)OCCO2)N1CCc2n[nH]c(-c3cc(Cl)c(O)cc3O)c2C1 [compound 14, [3-(5-chloro-2,4-dihydroxyphenyl)-1,4,6,7-tetrahydro-5H-pyrazolo[4,3-c]pyridin-5-yl](1,4-dioxaspiro[4.5]dec-8-yl)methanone] | 1.1
O=C(c1ccc(-n2ccnc2)cc1)N1CCc2[nH]nc(-c3cc(Cl)c(O)cc3O)c2C1 [compound 16, [3-(5-chloro-2,4-dihydroxyphenyl)-1,4,6,7-tetrahydro-5H-pyrazolo[4,3-c]pyridin-5-yl][4-(1H-imidazol-1-yl)phenyl]methanone] | 8.3
CO[C@H]1CC[C@H](C(=O)N2CCc3[nH]nc(-c4cc(Cl)c(O)cc4O)c3C2)CC1 [compound 17, [3-(5-chloro-2,4-dihydroxyphenyl)-1,4,6,7-tetrahydro-5H-pyrazolo[4,3-c]pyridin-5-yl](trans-4-methoxycyclohexyl)methanone] | 3
